One test has as its system Escherichia coli MV1184. Nature of the test: MIC/MBC determination, microplate. The test is classed as cell-based. Particulars: E. coli; 37° C., 24 hours.
Test [1] in a line: Lewis acidity: rate constant of reaction between CoTPP and oxygen in the presence of a Lewis acid. The test is classed as physicochemical.
A further test relates to Staphylococcus aureus. Nature of the test: MIC/MBC determination, microplate. It is filed as cell-based. Particulars: S. aureus; 37° C., 24 hours.

Where “and” joins values, the source holds several entries; their conditions need not be identical. Equal entries are not always repeated. Where two headings read alike, the source gives them in different places. Bounds are passed on as bounds.

As for sodium chlorite [Comp. Ex. 7], in the test on Escherichia coli MV1184, the MIC is 25< ppm.
On to `CC(C)(C)CC(C)(C)c1ccc(OCCOCC[N+](C)(C)Cc2ccccc2)cc1.[Cl-]` [benzetonium chloride, benzethonium chloride], for which, in test [1], the kcat is 0.24 and 0.24 M^−2 s^−1.
Regarding benzalkonium chloride, in test [1] (rate constant of reaction between CoTPP and oxygen in the presence of a Lewis acid, MeCN, saturated O2, room temperature), the kcat worked out at 0.18 M^−2 s^−1.
In the case of `CCCC[N+](CCCC)(CCCC)CCCC.F[P-](F)(F)(F)(F)F` [tetrabutylammonium hexafluorophosphate], the kcat in test [1] was >0.1 M^−2 s^−1.
On to sodium chlorite [compound 6], for which, in the test with Escherichia coli MV1184, the MBC worked out at 50 ppm and the MIC is recorded as 30 ppm. Further, the MIC in the test on Staphylococcus aureus is 40 ppm.
